Key:
[1] = Inhibition of HCV genotype 1b NS5B S96T mutant; parameters: species or system Hepatitis C virus subtype 1b
[2] = target: DNA-directed RNA polymerase, mitochondrial (Homo sapiens) (UniProt O00411); assay: Inhibition of human POLRMT using 5'-P32-RNA/DNA hybrid assessed as incorporation of UTP at 100 uM after 2 hrs by scintillation counting method relative to control; parameters: scale not given: the % may be the effect or the level left
[3] = Inhibition of RNA polymerase 2 isolated from human HeLa cell nuclear extract assessed as decrease in incorporation of P32-alpha-CTP after 2 hrs by scintillation counting method; format: cell-free
[4] = Inhibition of C-terminal His-tagged HCV genotype 1b NS5Bdelta21 expressed in Escherichia coli BL21 (DE3) using synthetic 20mer RNA/[32P]GpG as template/primer after 90 mins by PAGE analysis; parameters: species or system Hepatitis C virus subtype 1b
[5] = target: T1, DNA polymerase alpha catalytic subunit (Homo sapiens, UniProt P09884); assay: Inhibition of human DNA polymerase alpha using 5' end radiolabeled 24nt DNA/48nt DNA as primer/template after 5 mins by PAGE analysis
T1 sequence (P09884 whole entry): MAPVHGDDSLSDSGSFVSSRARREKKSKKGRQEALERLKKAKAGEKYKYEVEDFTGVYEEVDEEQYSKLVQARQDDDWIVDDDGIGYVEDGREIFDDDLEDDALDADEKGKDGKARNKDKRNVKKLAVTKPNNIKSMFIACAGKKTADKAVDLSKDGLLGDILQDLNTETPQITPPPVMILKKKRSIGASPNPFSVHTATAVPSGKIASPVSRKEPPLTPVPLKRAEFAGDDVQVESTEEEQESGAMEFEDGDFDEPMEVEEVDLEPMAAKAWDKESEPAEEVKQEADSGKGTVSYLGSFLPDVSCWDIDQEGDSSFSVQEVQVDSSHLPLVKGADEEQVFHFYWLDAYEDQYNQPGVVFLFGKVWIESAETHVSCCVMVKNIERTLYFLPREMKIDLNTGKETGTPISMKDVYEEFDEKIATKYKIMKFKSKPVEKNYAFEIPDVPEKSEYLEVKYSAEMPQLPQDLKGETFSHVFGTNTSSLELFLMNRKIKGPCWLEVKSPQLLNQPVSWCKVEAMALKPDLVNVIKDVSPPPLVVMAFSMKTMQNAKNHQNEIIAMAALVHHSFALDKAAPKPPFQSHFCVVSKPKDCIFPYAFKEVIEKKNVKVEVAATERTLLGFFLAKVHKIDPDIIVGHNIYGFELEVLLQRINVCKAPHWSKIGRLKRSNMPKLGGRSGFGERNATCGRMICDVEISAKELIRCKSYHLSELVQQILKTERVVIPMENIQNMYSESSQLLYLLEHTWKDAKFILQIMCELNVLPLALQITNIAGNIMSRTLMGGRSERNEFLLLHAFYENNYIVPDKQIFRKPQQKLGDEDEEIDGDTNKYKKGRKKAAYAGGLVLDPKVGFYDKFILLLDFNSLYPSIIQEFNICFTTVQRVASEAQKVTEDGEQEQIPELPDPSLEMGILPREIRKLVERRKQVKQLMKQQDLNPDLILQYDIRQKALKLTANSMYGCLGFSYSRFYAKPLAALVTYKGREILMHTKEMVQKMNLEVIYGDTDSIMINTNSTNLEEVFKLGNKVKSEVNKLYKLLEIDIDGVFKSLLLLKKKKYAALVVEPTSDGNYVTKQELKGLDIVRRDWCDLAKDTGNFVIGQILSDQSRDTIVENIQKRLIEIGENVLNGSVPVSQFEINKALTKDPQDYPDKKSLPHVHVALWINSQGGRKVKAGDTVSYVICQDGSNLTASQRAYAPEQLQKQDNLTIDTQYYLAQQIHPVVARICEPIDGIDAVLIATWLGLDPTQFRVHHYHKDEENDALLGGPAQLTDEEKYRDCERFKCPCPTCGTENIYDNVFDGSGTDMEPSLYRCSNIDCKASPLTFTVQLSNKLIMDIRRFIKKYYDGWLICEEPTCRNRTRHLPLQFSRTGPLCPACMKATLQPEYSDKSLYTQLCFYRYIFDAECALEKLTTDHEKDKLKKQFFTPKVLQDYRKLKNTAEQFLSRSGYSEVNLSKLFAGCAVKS

[6] = Inhibition of human DNA polymerase gamma using 5' end radiolabeled 24nt DNA/36nt DNA as primer/template after 120 mins by PAGE analysis
DNA polymerase beta = DNA polymerase beta (Homo sapiens, UniProt P06746); assay: Inhibition of human DNA polymerase beta using 5' end radiolabeled 24nt DNA/48nt DNA as primer/template after 5 mins by PAGE analysis
[7] = Inhibition of wild type HCV genotype 2a NS5B; parameters: species or system Hepatitis C virus subtype 2a
[8] = Inhibition of wild type HCV genotype 4a NS5B; parameters: species or system Hepatitis C virus subtype 4a
nuclear DNA levels [9] = assay: Cytotoxicity against human HepG2 cells assessed as inhibition of nuclear DNA levels at 50 uM measured on day 14 by RT-PCR method relative to nuclear beta-actin DNA levels; format: cell-based; details: read-out: INH
Hepatitis C virus [10] = assay: Selectivity ratio of EC90 for HCV genotype 1b harboring NS5B S282T mutant to EC90 for HCV genotype 1b harboring wild type NS5B; format: functional, Hepacivirus hominis
Cytochrome P450 3A4 = Cytochrome P450 3A4 (Homo sapiens, UniProt P08684); assay: Inhibition of human CYP3A4 using ketoconazole […]; format: ADME
Cytochrome P450 1A2 = target: T2, Cytochrome P450 1A2 (Homo sapiens, UniProt P05177); assay: Inhibition of human CYP1A2 using alpha-naphthoflavone […]; format: ADME
T2 sequence (P05177 whole entry): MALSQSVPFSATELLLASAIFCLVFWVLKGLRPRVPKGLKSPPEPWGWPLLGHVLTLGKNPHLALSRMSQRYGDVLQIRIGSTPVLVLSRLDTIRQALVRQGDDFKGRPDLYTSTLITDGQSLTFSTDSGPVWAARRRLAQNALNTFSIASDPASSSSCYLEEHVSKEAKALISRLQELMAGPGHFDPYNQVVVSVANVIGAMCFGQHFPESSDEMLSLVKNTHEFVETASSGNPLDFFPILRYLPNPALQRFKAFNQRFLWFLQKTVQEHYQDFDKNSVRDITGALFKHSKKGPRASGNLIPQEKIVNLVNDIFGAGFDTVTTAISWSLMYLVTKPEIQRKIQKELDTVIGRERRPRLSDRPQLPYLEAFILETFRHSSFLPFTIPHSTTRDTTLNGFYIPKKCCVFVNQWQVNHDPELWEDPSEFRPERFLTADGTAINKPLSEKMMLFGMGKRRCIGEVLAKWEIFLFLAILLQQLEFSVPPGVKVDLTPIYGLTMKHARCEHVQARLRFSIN

nuclear DNA levels [11] = assay: Cytotoxicity against human HepG2 cells assessed as inhibition of nuclear DNA levels at 25 uM measured on day 14 by RT-PCR method relative to nuclear beta-actin DNA levels; format: cell-based; details: read-out: INH
Hepatitis C virus [12] = assay: Antiviral activity against HCV genotype 1b infected in human HuH7 cells assessed as inhibition of viral RNA replication after 96 hrs by RT-PCR method; format: functional, cell-based, Hepacivirus hominis; details: Huh-7, 96 h
HepG2 [13] = assay: Mitochondrial toxicity in human HepG2 cells assessed as cytochrome c oxidase subunit 2 DNA levels at 25 uM measured on day 14 by RT-PCR method relative to nuclear beta-actin DNA levels; format: cell-based; details: hepg2, 25 µM
[14] = system: cytochrome c oxidase subunit 2 DNA (mitochondrial DNA) levels; assay: Mitochondrial toxicity in human HepG2 cells assessed as inhibition of cytochrome c oxidase subunit 2 DNA levels at 50 uM measured on day 14 by RT-PCR method relative to nuclear beta-actin DNA levels; format: cell-based
[15] = Cytotoxicity against human CEM cells assessed as inhibition of cell proliferation after 4 days by MTT assay; format: cell-based, CCRF-CEM
Hepatitis C virus [16] = assay: Antiviral activity against HCV genotype 3a infected in human HuH7 cells assessed as inhibition of viral RNA replication after 96 hrs by RT-PCR method; format: functional, cell-based, Hepacivirus hominis; details: Huh-7, 96 h
[17] = Cytotoxicity against human HuH7 cells assessed as inhibition of cell proliferation after 4 days by MTS assay; format: cell-based, Huh-7
[18] = Cytotoxicity against human PBMC assessed as inhibition of cell proliferation after 5 days by MTT assay; format: cell-based
nuclear DNA levels [19] = assay: in vitro; details: human, HepG2 cells
HepG2 [20] = assay: Cytotoxicity against human HepG2 cells assessed as inhibition of nuclear DNA levels measured on day 14 by RT-PCR method; details: HepG2, 336 h
[21] = system: cytochrome c oxidase subunit 2 DNA (mitochondrial DNA) levels; assay: Mitochondrial toxicity in human HepG2 cells assessed as inhibition of cytochrome c oxidase subunit 2 DNA levels measured on day 14 by RT-PCR method; format: cell-based
[22] = Cytotoxicity against African green monkey Vero cells assessed as inhibition of cell proliferation after 3 days by MTT assay; format: cell-based; details: chlorocebus sabaeus
[23] = system: cytochrome c oxidase subunit 2 DNA (mitochondrial DNA) levels; assay: in vitro; details: human, HepG2 cells
Hepatitis C virus [24] = assay: Antiviral activity against HCV genotype 1b harboring NS5B S282T mutant infected in human HuH7 cells assessed as inhibition of viral RNA replication after 4 days by luciferase reporter gene assay; format: functional, cell-based, Hepacivirus hominis; details: Huh-7, 96 h
Cytochrome P450 2C9 = Cytochrome P450 2C9 (Homo sapiens, UniProt P11712); assay: Inhibition of human CYP2C9 using sulfaphenazole […]; format: ADME
HepG2 [25] = assay: Mitochondrial toxicity in human HepG2 cells assessed as cytochrome c oxidase subunit 2 DNA levels at 10 uM measured on day 14 by RT-PCR method relative to nuclear beta-actin DNA levels; details: hepg2, 10 µM
[26] = system: cytochrome c oxidase subunit 2 DNA (mitochondrial DNA) levels; assay: Mitochondrial toxicity in human HepG2 cells assessed as inhibition of cytochrome c oxidase subunit 2 DNA levels at 25 uM measured on day 14 by RT-PCR method relative to nuclear beta-actin DNA levels; format: cell-based
Cytochrome P450 2D6 = Cytochrome P450 2D6 (Homo sapiens, UniProt P10635); assay: Inhibition of human CYP2D6 using quinidine […]; format: ADME
Hepatitis C virus [27] = assay: Selectivity ratio of EC50 for HCV genotype 1b harboring NS5B S282T mutant to EC50 for HCV genotype 1b harboring wild type NS5B; format: functional, Hepacivirus hominis
Hepatitis C virus [28] = assay: Antiviral activity against HCV genotype 4 infected in human HuH7 cells assessed as inhibition of viral RNA replication after 96 hrs by RT-PCR method; format: functional, cell-based, Hepacivirus hominis; details: genotype 4, Huh-7, 96 h
Hepatitis C virus [29] = assay: Antiviral activity against HCV genotype 2a/k infected in human HuH7 cells assessed as inhibition of viral RNA replication after 96 hrs by RT-PCR method; format: functional, cell-based, Hepacivirus hominis; details: Huh-7, 96 h
Hepatitis C virus [30] = assay: Antiviral activity against HCV genotype 2b infected in human HuH7 cells assessed as inhibition of viral RNA replication after 96 hrs by RT-PCR method; format: functional, cell-based, Hepacivirus hominis; details: Huh-7, 96 h
HepG2 [31] = assay: Mitochondrial toxicity in human HepG2 cells assessed as cytochrome c oxidase subunit 2 DNA levels at 50 uM measured on day 14 by RT-PCR method relative to nuclear beta-actin DNA levels; format: cell-based; details: hepg2, 50 µM
Hepatitis C virus [32] = assay: Antiviral activity against HCV genotype 1a infected in human HuH7 cells assessed as inhibition of viral RNA replication after 96 hrs by RT-PCR method; format: functional, cell-based, Hepacivirus hominis; details: subtype 1a, Huh-7, 96 h
Hepatitis C virus [33] = assay: Antiviral activity against HCV genotype 1b harboring wild type NS5B infected in human HuH7 cells assessed as inhibition of viral RNA replication after 5 days by RT-PCR method; format: functional, cell-based, Hepacivirus hominis; details: Huh-7, 120 h

Chain of Cytochrome P450 3A4 (P08684 whole entry): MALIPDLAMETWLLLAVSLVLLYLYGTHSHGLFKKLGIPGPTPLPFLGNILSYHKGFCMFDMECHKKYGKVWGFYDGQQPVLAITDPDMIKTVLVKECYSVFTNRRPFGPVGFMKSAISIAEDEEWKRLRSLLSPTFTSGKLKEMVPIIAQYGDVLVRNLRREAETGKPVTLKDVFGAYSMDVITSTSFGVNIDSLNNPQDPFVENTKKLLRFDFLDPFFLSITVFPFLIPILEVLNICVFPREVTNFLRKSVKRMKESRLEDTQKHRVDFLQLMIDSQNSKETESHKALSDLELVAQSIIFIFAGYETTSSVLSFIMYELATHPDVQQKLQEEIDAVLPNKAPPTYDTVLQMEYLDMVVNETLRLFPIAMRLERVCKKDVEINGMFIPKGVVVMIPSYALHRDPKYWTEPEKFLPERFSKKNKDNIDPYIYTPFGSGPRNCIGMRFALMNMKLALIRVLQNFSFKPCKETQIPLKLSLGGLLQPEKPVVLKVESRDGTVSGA
Chain of Cytochrome P450 2C9 (P11712 whole entry): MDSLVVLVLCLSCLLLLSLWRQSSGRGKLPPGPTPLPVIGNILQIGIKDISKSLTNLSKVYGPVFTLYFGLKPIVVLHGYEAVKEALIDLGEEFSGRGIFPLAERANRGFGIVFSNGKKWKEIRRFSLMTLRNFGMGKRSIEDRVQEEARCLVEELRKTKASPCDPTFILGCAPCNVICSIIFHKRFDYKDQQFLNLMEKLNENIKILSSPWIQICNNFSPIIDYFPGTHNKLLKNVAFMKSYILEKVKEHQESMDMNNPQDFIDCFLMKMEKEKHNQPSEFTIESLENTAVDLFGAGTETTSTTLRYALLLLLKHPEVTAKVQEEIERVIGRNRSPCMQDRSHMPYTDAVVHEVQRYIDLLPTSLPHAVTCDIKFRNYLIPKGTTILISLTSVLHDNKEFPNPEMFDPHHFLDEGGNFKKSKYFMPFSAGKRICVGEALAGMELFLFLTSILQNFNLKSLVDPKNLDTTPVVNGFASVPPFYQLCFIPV
Chain of Cytochrome P450 2D6 (P10635 whole entry): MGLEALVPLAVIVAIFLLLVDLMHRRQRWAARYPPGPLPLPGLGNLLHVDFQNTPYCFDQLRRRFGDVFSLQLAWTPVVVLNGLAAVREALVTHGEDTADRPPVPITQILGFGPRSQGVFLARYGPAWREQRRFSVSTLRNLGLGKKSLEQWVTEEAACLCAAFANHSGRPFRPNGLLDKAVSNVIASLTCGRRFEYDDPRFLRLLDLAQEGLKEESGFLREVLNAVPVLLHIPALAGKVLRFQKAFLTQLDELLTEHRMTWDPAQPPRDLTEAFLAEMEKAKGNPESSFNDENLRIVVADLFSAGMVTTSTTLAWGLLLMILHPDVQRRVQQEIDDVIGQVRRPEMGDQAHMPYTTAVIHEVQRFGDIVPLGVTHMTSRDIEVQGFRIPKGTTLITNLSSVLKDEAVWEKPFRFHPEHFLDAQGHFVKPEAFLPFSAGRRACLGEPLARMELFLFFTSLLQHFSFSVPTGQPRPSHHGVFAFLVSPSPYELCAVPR
Chain of DNA-directed RNA polymerase, mitochondrial (Homo sapiens) (O00411 whole entry): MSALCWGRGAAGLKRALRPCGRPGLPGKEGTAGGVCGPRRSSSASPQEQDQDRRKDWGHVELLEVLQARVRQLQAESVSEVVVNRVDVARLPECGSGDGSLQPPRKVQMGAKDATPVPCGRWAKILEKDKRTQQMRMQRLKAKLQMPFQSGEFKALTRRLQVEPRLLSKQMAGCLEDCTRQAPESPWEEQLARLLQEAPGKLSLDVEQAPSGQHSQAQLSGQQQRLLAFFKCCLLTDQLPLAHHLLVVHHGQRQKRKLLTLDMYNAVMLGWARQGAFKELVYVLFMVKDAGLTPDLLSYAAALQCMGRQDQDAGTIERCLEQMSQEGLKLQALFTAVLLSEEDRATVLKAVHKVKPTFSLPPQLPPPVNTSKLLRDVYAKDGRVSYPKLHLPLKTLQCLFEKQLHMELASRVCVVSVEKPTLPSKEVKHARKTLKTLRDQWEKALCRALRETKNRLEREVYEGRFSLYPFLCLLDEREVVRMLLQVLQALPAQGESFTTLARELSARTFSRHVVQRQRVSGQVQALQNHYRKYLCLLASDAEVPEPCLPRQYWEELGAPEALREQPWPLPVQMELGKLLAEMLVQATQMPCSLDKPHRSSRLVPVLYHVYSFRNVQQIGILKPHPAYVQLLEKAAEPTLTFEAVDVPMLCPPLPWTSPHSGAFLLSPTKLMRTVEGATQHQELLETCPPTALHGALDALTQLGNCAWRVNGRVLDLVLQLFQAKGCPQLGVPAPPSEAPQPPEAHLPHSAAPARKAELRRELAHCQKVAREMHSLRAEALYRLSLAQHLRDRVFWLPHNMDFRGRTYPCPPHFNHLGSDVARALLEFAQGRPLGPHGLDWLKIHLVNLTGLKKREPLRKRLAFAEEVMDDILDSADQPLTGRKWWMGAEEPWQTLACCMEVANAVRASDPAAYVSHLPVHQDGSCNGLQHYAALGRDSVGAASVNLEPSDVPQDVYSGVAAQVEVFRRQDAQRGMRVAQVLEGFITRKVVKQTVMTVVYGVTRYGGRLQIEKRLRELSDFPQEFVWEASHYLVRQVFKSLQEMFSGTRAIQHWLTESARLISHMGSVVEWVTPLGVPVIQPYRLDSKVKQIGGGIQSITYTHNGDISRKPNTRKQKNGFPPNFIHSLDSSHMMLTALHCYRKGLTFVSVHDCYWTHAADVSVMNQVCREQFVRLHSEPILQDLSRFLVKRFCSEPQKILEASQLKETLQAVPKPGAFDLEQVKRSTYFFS

Compound: O=c1ccn([C@@H]2O[C@H](COP(=O)(O)OP(=O)(O)OP(=O)(O)O)C(O)C2(F)Cl)c(=O)[nH]1 (single isomer, unassigned)
- IC50 [1]: 13 µM
- Activity [2]: 35%
- IC50 [3]: > 100 µM
- IC50 [4]: 5.5 µM
- IC50 [5]: 20.2 µM
- IC50 [6]: > 100 µM
- IC50 (DNA polymerase beta): > 100 µM
- IC50 [7]: 6.1 µM
- IC50 [8]: 8.6 µM

Compound: CC(C)OC(=O)[C@H](C)N[P@](=O)(OC[C@H]1O[C@@H](n2ccc(=O)[nH]c2=O)[C@](C)(F)[C@@H]1O)Oc1ccccc1 [SOFOSBUVIR]
- cytotoxicity at 14 days, 50 µM (nuclear DNA levels [9]): 38.8%
- Selectivity ratio (Hepatitis C virus [10]): 3
- IC50 (Cytochrome P450 3A4): 8.4 µM
- IC50 (Cytochrome P450 1A2): > 100 µM
- cytotoxicity at 14 days, 25 µM (nuclear DNA levels [11]): 38.3%
- IC50 (Hepatitis C virus [12]): 0.06 µM
- Activity (HepG2 [13]): 187%
- inhibition at 14 days, 50 µM [14]: < 1%
- CC50 at 96 h [15]: > 100 µM
- IC50 (Hepatitis C virus [16]): 0.09 µM
- CC50 at 96 h [17]: > 10 µM
- CC50 at 120 h [18]: > 100 µM
- cytotoxicity at 14 days, 10 µM (nuclear DNA levels [19]): 7.3%
- IC50 (HepG2 [20]): > 50 µM
- IC50 at 14 days [21]: > 50 µM
- CC50 at 72 h [22]: > 100 µM
- inhibition at 14 days, 10 µM [23]: < 1%
- EC50 (Hepatitis C virus [24]): 0.4 µM
- EC90 (Hepatitis C virus [24]): 1 µM
- IC50 (Cytochrome P450 2C9): 60 µM
- Activity (HepG2 [25]): 176%
- inhibition at 14 days, 25 µM [26]: < 1%
- IC50 (Cytochrome P450 2D6): > 100 µM
- Ratio EC50 (Hepatitis C virus [27]): 4.4
- IC50 (Hepatitis C virus [28]): 0.07 µM
- IC50 (Hepatitis C virus [29]): 0.02 µM
- IC50 (Hepatitis C virus [30]): 0.04 µM
- Activity (HepG2 [31]): 255%
- IC50 (Hepatitis C virus [32]): 0.06 µM
- EC50 (Hepatitis C virus [33]): 0.09 to 0.2 µM
- EC90 (Hepatitis C virus [33]): 0.3 to 0.5 µM

Source: ChEMBL document CHEMBL4014354, “2'-Chloro,2'-fluoro Ribonucleotide Prodrugs with Potent Pan-genotypic Activity against Hepatitis C Virus Replication in Culture” (J Med Chem, 2017)
